Measurements as given in US8828974B2, “Substituted propane phosphinic acid derivatives” (Aventis Pharmaceuticals Inc., priority 2004, dated 2014).

Assays:
[1] = system: Male Wistar rats; experiment: Chronic Mild Stress Model (CMS), sucrose consumption; assay type: in vivo, rat; conditions: 3 and 30 mg/kg orally, daily for five weeks; imipramine 10 mg/kg ip
Experimental: The following CMS study is performed using the parent compound 1 (hereafter “compound 1”) in comparison to known anti-depressant compound imipramine.
Male Wistar rats are brought into the laboratory two months before the start of the experiment at which time they weighed approximately 300 grams. Except as described below, the animals are singly housed, with food and water freely available, and maintained on a 12 hour light/dark cycle (lights on at 8 AM) at a temperature of about 22° C.
The animals are first trained to consume a 1% sucrose solution; training consists of eight 1 hour baseline tests in which sucrose is presented, in the home cage, following 14 hours food and water deprivation; intake is measured by weighing pre-weighed bottles containing the sucrose solution at the end of the test. Subsequently, sucrose consumption is monitored, under similar conditions, at weekly intervals throughout the whole experiment.
On the basis of their sucrose intakes in the final baseline test, the animals are divided into two matched groups. One group of animals is subjected to a chronic mild stress procedure for a period of 9 consecutive weeks. […]
Results are analyzed by multiple analysis of variance, followed by Fisher's LSD test for post hoc comparisons of means.

[2] = Relative bioavailability of parent compound 1 in plasma and brain after oral gavage in mice (Example 39); assay type: in vivo, Male CD1 mice; conditions: mouse brain samples 2, 4 and 7 hrs post-dose, LC/MS/MS
Experimental: Animals: Male CD1 mice (Charles River) weighing about 25 g—with free access to food and water.
Dose Groups: The compounds of this invention were administered to the test animals at a dose, which is molar equivalent to 10 mg/kg of the parent compound 1, ((R)-3-amino-2-hydroxy-propyl)-cyclohexylmethyl-phosphinic acid. Each of the test compounds was formulated at this dose level to yield a dose volume of 10 mL/kg and administered by oral gavage to a group of three mice per time point in each study group.
Formulations: The compounds of this invention were dissolved in vehicle of 0.2% Tween 80 and 0.5% methylcellulose (MC) at a concentration of about 1 mg/mL.
Samples: The blood samples (for plasma) were collected at the following time points: 5, 15 30 and 45 min […]; and 1, 2, 3, 4, 5, and 7 hrs post-dose. Brains were collected at 2, 4 and 7 hrs post-dose
Blood Handling: The blood samples were added to tubes containing 20 μL of a stock 10 mg/ml solution of sodium fluoride. The blood tubes were then stored in a refrigerator at approximately about 4° C. The volume of blood in each of these samples was about 0.4 mL. The samples were then centrifuged in a refrigerated centrifuge. […]
Bioanalysis: All plasma and brain samples were then analyzed for concentrations of the test compound as well as the parent compound 1, ((R)-3-amino-2-hydroxy-propyl)-cyclohexylmethyl-phosphinic acid by LC/MS/MS. […]

Structure (SMILES): NC[C@@H](O)CP(=O)(O)CC1CCCCC1 [compound 1, ((R)-3-amino-2-hydroxy-propyl)-cyclohexylmethyl-phosphinic acid]
- activity in CMS (sucrose intake) compared with imipramine [1]: equal to that of imipramine
- concentration of the parent compound 1 in brain [2]: proportional to the concentration of the parent compound in plasma
